{"source": "patent US20250243520A1", "about": "“PRODUCTION METHOD FOR L-CYCLIC AMINO ACIDS” (UBE CORPORATION, priority 2019, published 2025)", "molecules": {"B1": {"name": "MaP2CR: imino acid reductase derived from Morus alba, SEQ ID NO: 4; GST-fused form SEQ ID NO: 10 (protein, listed as Morus alba)", "chain": "MASTTTAITSPIFITTQSFHTILSRQTLMDHFHSSLPTVSASLSTPLRQNHAVSPTSSLLLMPSWSTSPSLPYIGVKLVTYFPQSSTLSLPGIHASYVLFSSATGQTLASMDGTALTLFRTSCVSGLASRILARDDSKVLVMIGAGALAPHLIKAHLTARPGLERVVIWNRTVEKARNLAEQLQQSSGLDGVCFESNGCLEEVVGMGDIVSCATNSEAPLVKGQKLKPGAHLDLVGSFKHSMRECDDEAIQRGRIFVDNEAALVEAGELVGAFERGVITKEDIGGNLVELIMGEKVGRRDSEEVTVFKSVGSAAVDILAAQLVYETYLQQNN"}, "B2": {"name": "LjP2CR: imino acid reductase derived from Lathyrus japonicus, SEQ ID NO: 6; GST-fused form SEQ ID NO: 12 (protein, listed as Lathyrus japonicus)", "chain": "MASANKDQKTTNTVSSSSSSSSPIFISTENLQTILTHQTLMKHIDSNLPKVSTFLQTPIRQHYSLSPSSSLLLMPSWSSSSSFPYVGVKLVTHFPQNSSINLPGVQGSYVLFNSTTGQTLASMDSTELTLYRTSCVSGLASRYLSRDDSEVLVMVGAGPLAPHLIRAHFSARPSLRKVLIWNRTVEKAEALAKNLRESDEFSLSGLSFEGCGCLNEVVGLGDIVSCATNSEMALVKGERLKVGAHLDLVGSFKPSMKECDDEALKRGKVFVDNEAALVEAGELVGAFERGVIKEDEIEANLVELIRGDKVGRRSSEEITVFKSVGSAVVDMLAAQFVYESYIGK"}, "B3": {"name": "AtP2CR: imino acid reductase derived from Arabidopsis thaliana, SEQ ID NO: 2; GST-fused form SEQ ID NO: 8 (protein, listed as Arabidopsis thaliana)", "chain": "MAALPVFIPAESFPSILSHETLINHFRTNLPKHSSTITSPVRQNYTVSSPSSLLLMPSWSSSSSLPYMGVKLVTYFPHNSSQNLPGIHGSYTLFSSTTGQTLATMDGTVLTLYRTSSVSGLGSKILARDDSQVLIMVGSGALAPHLIKSHLAARPSLRRVIIWNRTPQRAQELAETLSKDPQHKEISFDSHDSLDQIIPLGDIISCATNSTVPLVKGEFLKPGTHLDLAGSFSHEMKECDDNAIQRGSVFVDNDTAMIEAGELAGAFERGVIKREDICGNLVELIKGDKEGRKSSTDITVFKSVGSGTVDLLTAQLVHETYLSRC"}}, "key": {"[1]": {"test_system": "Morus alba imino acid (imine) reductase MaP2CR, GST-fused, SEQ ID NO: 10 (MaP2CR: SEQ ID NO: 4)", "assay": "Analysis of enzymatic catalytic activity: reduction of PipC2 with varied NADPH, absorbance at 340 nm (MaP2CR)", "assay_type": "biochemical"}, "[2]": {"test_system": "Lathyrus japonicus imino acid (imine) reductase LjP2CR, GST-fused, SEQ ID NO: 12 (LjP2CR: SEQ ID NO: 6)", "assay": "Analysis of enzymatic catalytic activity: reduction of PipC2 with varied NADPH, absorbance at 340 nm (LjP2CR)", "assay_type": "biochemical"}, "[3]": {"target": "T1, Pseudomonas putida PipC2 reductase dpkA (Pseudomonas putida, UniProt Q5FB93)", "T1 sequence (Q5FB93 whole entry)": "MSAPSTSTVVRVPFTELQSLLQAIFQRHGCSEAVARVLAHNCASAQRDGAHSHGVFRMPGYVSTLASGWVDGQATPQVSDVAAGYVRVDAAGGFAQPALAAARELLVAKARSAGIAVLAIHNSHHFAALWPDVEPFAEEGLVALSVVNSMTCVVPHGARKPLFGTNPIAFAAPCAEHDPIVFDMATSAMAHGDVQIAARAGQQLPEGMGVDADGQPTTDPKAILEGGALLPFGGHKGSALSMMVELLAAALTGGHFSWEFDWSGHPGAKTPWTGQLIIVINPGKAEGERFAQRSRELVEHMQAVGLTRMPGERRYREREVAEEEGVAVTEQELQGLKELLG", "assay": "Literature kinetics of PipC2 reductase dpkA (Muramatsu et al., 2005)", "assay_type": "biochemical", "conditions": "Table 5; literature value; molecular weight 35954"}, "[4]": {"target": "T1, Pseudomonas putida PipC2 reductase dpkA", "design": "NADP Vmax: unit not given here", "conditions": "cited from earlier work"}, "[5]": {"assay": "Enzyme reaction with PipC2 enzyme synthesis solution and *NADPH; products analysed by LCMS and chiral HPLC", "assay_type": "biochemical", "conditions": "10 mM *NADPH, 30° C., 120 minutes", "method": "An enzyme reaction was carried out using each enzyme solution (purified P2CR recombinant enzyme solution) obtained in Example 1. The reaction was carried out using a 1.5 mL Eppendorf tube as the reaction vessel, and using each enzyme reaction solution in a volume of 100 μL. Since PipC2 which serves as the substrate is not commercially available, one obtained from L-lysine by enzyme synthesis, using the aminotransferase MaALDI obtained in Reference Example 1 to be described later, was used.\nThe enzyme reaction was carried out using a shaking incubator (manufactured by AS ONE Corporation), at a reaction temperature of 30° C. with shaking at 1,000 rpm. The reaction time was set to 120 minutes. Heating was performed at a reaction temperature of 98° C. for five minutes to inactivate the enzyme, and the reaction was terminated. Subsequently, the reaction solution was centrifuged at 15,000 rpm at room temperature for 10 minutes, and the resulting supernatant was used as a PipC2 enzyme synthesis solution.\nThereafter, the reaction was carried out under the same conditions as the reaction using the enzyme MaALDI described above, to obtain an enzyme reaction product.\nEach of the enzyme reaction products was analyzed by liquid chromatography-mass spectrometry (LCMS). First, each sample (enzyme reaction product) was subjected to a derivatization treatment. Using AccQ·Tag Ultra Derivatization Kit (manufactured by Waters Corporation), a mixture of each sample was prepared according to the composition shown in Table 3. The derivatizating reagent solution was added at last. After mixing, the mixture was incubated at 55° C. for 10 minutes.\nEach sample which had been subjected to the derivatization treatment was diluted two-fold with pure water, and used as a sample for LCMS analysis.\nWhen the activities of the enzyme reaction products were analyzed by LCMS analysis, it was confirmed that the products had the same retention time as that of L-PipA as the standard, and that novel peaks of the MS pattern were observed. Further, it was unable to detect PipA in the control. […]"}, "[6]": {"conditions": "Table 5, values determined by ANEMONA, GST-fused protein"}, "[7]": {"conditions": "Table 5, values determined by ANEMONA, GST-fused protein, read-out: NADP Km"}}, "note": "Like-named read-outs stand apart in the source and are kept apart here.", "data": [{"molecule": "NC(=O)C1=CN([C@@H]2O[C@H](COP(=O)(O)OP(=O)(O)OC[C@H]3O[C@@H](n4cnc5c(N)ncnc54)[C@H](OP(=O)(O)O)[C@@H]3O)[C@@H](O)[C@H]2O)C=CC1", "note": "[NADPH, reduced nicotinamide adenine dinucleotide phosphate]", "values": [{"measurement": "Vmax", "setting": "[1]; Hanes-Woolf plot, NADPH 0.5-80 μM, Tris-HCl pH 7.2", "result": 24.00, "unit": "nmol/min/mg"}, {"measurement": "Km", "setting": "[1]; Hanes-Woolf plot, NADPH 0.5-80 μM, Tris-HCl pH 7.2, read-out: Km", "result": 6.16, "unit": "µM"}, {"measurement": "Activity per one molecule of enzyme kcat", "setting": "[1]; Table 5, GST-fused protein, molecular weight 61792", "result": 0.0217, "unit": "s⁻¹"}, {"measurement": "NADP Vmax", "setting": "[1]; [6]", "result": 21}, {"measurement": "Km", "setting": "[1]; [7]", "result": 3.6, "unit": "µM"}, {"measurement": "Vmax", "setting": "[1]; nonlinear regression by ANEMONA, NADPH 0.5-80 μM, Tris-HCl pH 7.2", "result": 21.2, "unit": "nmol/min/mg"}, {"measurement": "Km", "setting": "[1]; nonlinear regression by ANEMONA, NADPH 0.5-80 μM, Tris-HCl pH 7.2, read-out: Km", "result": 3.57, "unit": "µM"}, {"measurement": "Vmax", "setting": "[2]; Hanes-Woolf plot, NADPH 10-500 μM, Tris-HCl pH 7.2", "result": 199.55, "unit": "nmol/min/mg"}, {"measurement": "Km", "setting": "[2]; Hanes-Woolf plot, NADPH 10-500 μM, Tris-HCl pH 7.2, read-out: Km", "result": 170, "unit": "µM"}, {"measurement": "Activity per one molecule of enzyme kcat", "setting": "[2]; Table 5, GST-fused protein, molecular weight 63449", "result": 0.198, "unit": "s⁻¹"}, {"measurement": "NADP Vmax", "setting": "[2]; [6]", "result": 187}, {"measurement": "Km", "setting": "[2]; [7]", "result": 155, "unit": "µM"}, {"measurement": "Vmax", "setting": "[2]; nonlinear regression by ANEMONA, NADPH 10-500 μM, Tris-HCl pH 7.2", "result": 187.3, "unit": "nmol/min/mg"}, {"measurement": "Km", "setting": "[2]; nonlinear regression by ANEMONA, NADPH 10-500 μM, Tris-HCl pH 7.2, read-out: Km", "result": 155, "unit": "µM"}, {"measurement": "Activity per one molecule of enzyme kcat", "setting": "[3]", "result": 0.132, "unit": "s⁻¹"}, {"measurement": "Vmax", "setting": "[4]; Muramatsu et al. 2005", "result": 220, "unit": "nmol/min/mg"}, {"measurement": "Km", "setting": "[4]; Muramatsu et al. 2005, read-out: Km", "result": 140, "unit": "µM"}, {"measurement": "NADP Vmax", "setting": "[4]; Table 5, literature value", "result": 220}, {"measurement": "Km", "setting": "[4]; Table 5, literature value, read-out: NADP Km", "result": 140, "unit": "µM"}]}, {"molecule": "B1", "values": [{"measurement": "ability to reduce PipC2 to convert to PipA (LCMS of enzyme reaction products)", "setting": "[5]", "result": "have the ability to reduce PipC2 to convert to PipA"}]}, {"molecule": "B2", "values": [{"measurement": "ability to reduce PipC2 to convert to PipA (LCMS of enzyme reaction products)", "setting": "[5]", "result": "have the ability to reduce PipC2 to convert to PipA"}]}, {"molecule": "B3", "values": [{"measurement": "ability to reduce PipC2 to convert to PipA (LCMS of enzyme reaction products)", "setting": "[5]", "result": "have the ability to reduce PipC2 to convert to PipA"}]}]}
